“Also recorded” adds a separate entry of the source. Like-named read-outs stand apart in the source and are kept apart here.
How the values were obtained:
[1] = test system: murine hepatitis virus strain A59 (MHV); assay: Reduction of MHV cytopathic effect (CPE) in LR7 cells, MTS/PMS readout; format: cell-based; settings: for protection against MHV-induced CPE: 50 μM, MOI 0.01, 24 h; for concentration above which MHV-induced CPE was significantly reduced: MOI 0.01, 24 h p.i.
Method: LR7 cells were seeded in a 96-well plate and cultured overnight. Next, the cells were infected with MHV at an MOI value of 0.01 in medium without FBS. Following 1 h of incubation, the medium containing the virus was collected and cells were covered with a medium supplemented with different concentrations (in triplicate) of the analyzed compounds or DMSO. 24 h p.i. cells viability was evaluated by CellTiter 96 AQueous nonradioactive cell proliferation assay (Promega) according to the manufacturer’s instruction.

HCoV-NL63 RNA synthesis = assay: HCoV-NL63 RNA level in infected LLC-Mk2 cells, RT-PCR; format: cell-based, human coronavirus NL63; settings: MOI 0.01, 96 h p.i.
Method: LR7 or LLC-Mk2 were cultured in 12-well plate overnight. Next, LR7 cells were infected with MHV at an MOI value of 1 for 1 h or LLC-Mk2 cells were infected with HCoV-NL63 at an MOI value of 0.01 for 2 h. Following removal of unbound virus, cells were cultured with medium supplemented with different concentrations of selected compounds. 8 h p.i. (MHV) or 96 h p.i. (HCoV-NL63) cells were collected and total RNA was isolated by CoV RNA kit (A&A Biotechnology, Poland) according to the manufacturer’s instruction. To evaluate levels of viral RNA in infected cells Qiagen One-Step RT-PCR reaction was performed. Following reverse transcription, the PCR reaction was carried out using primers: F: […], R: […] for amplification of a fragment of HCoV-NL63 genome (position: 26418–26960 bp NC_005831.2) and F: […] and R: […] for amplification of a fragment of MHV genome (position: 30341–30902 bp FJ647225.1). For internal control fragment of β-actin mRNA was reverse transcribed and amplified using primers For: […] and Rev: […].

[2] = MTS-based cell viability assay in LLC-Mk2 cells; settings: Macaca mulatta, read-out: CC50 (HCoV-NL63 block)
Method: (§1) LR7, LLC-Mk2 or Vero cells were seeded in 96-well plates and cultured overnight. Next, the medium was changed to a new one supplemented with different concentrations (in triplicate) of analyzed compounds. Following the 2 days (LR7 and Vero) or 4 days (LLC-Mk-2) of incubation, CellTiter 96 AQueous nonradioactive cell proliferation assay (Promega) was performed according to the manufacturer’s instruction. The half-maximal cytotoxic concentration (CC50) was calculated as the concentration of a compound needed to reduce cell viability by 50% using GraphPad Prism software (version 5.01, GraphPad Software, San Diego, CA).

[3] = test system: human coronavirus strain NL63 (HCoV-NL63); assay: HCoV-NL63 N protein expression in LLC-Mk2 cells, Western blot and densitometry; format: cell-based; settings: for HCoV-NL63 N protein level: 50 μM, MOI 0.01, 4 days p.i., Western blot/densitometry
Method: LLC-Mk2 monolayers grown in 24-well plates were infected with HCoV-NL63 at an MOI value of 0.01 for 2 h. Unbound virus was removed, and cells were cultured in medium supplemented with different concentrations of compounds. Four days postinfection, cells were collected and lysed in CellLyticM Cell Lysis Reagent (Sigma). Following the protein separation by SDS-PAGE and transfer to PVDF membranes, proteins were immunoblotted using specific mouse anti-N NL63 Abs (Eurofins, Spain) or rabbit anti-β-catenin Abs (Santa Cruz), followed by antimouse or antirabbit secondary antibodies conjugated with HRP. Proteins were visualized and analyzed by chemiluminescence using the UVITEC Cambridge Alliance MINI HD detection system. The densitometric analysis of cells treated with 50 μM dose of a panel of glycoconjugates was performed based on three biological replicates of N and β-catenin immunoblots. The N protein levels were expressed as a percentage relative to DMSO-treated infected cells, while β-catenin levels were expressed as a percentage relative to noninfected control cells. The data were presented as the ratio of N/β-catenin for each sample, normalized accordingly.

[4] = test system: murine hepatitis virus strain A59 (MHV); assay: MHV titer in medium of infected LR7 cells, plaque assay; format: cell-based; settings: for dose above which no virus was detectable (MHV titer): LR7 cells, 24 h p.i.; for IC50: Murine coronavirus
Method: LR7 or LLC-Mk2 cells were infected at a MOI of 0.01 with MHV and HCoV-NL63, respectively, and treated with selected compounds at a concentration ranging from 0 to 50 μM. Culture supernatants were collected 1 day (MHV) or 4 days (HCoV-NL63) after infection. Virus titer was determined by plaque assay.
(§2) The half-maximum inhibitory concentration value (IC50) indicating the concentration of compound needed to reduce virus titer by 50% in comparison to the control, was evaluated by GraphPad software (version 5.01, GraphPad Software, San Diego, CA).

SARS-CoV-2 = SARS-CoV-2 infectivity in supernatants of infected Vero cells, plaque assay; format: cell-based; settings: for IC50: read-out: IC50 (SARS-CoV-2)
Method: Vero cells were seeded in appropriate plates and allowed to reach an approximately 90% confluence. For infection, 200 μL of viral suspension containing 10^5 pfu (SARS-CoV-2 strain SARS-CoV-2/human/Czech Republic/951/2020) was added to each well and incubated for 2 h at 37 °C to allow virus adsorption. After the incubation, the viral medium was removed, and the wells were washed gently with phosphate-buffered saline (PBS). Test compounds were prepared in serial dilutions to final concentrations of 50, 25, 12.5, 6.25, 3.125, and 0 μM in the medium (DMEM containing 2% FBS). The compounds were added in quadruplicate to the infected cells. The plates were then incubated for 48 h at 37 °C. Following the 48 h treatment period, the supernatants were removed, and plaque assays in Vero E6 cells were performed to assess viral titers. Cells were fixed and stained 4 days after infection to visualize plaques, as described previously.
as §2

[5] = MTS-based cell viability assay in Vero cells; settings: African green monkey, 96 h per table footnote, read-out: CC50 (SARS-CoV-2 block)
Method: as §1

SARS-CoV-2 replicon = format: cell-based
LR7 cells = assay: MTS-based cell viability assay in LR7 cells; set-up: species or system mouse; settings: 50 μM, uninfected LR7 cells
Method: as §1

[6] = MTS-based cell viability assay in LR7 cells; set-up: species or system mouse; settings: mouse, LR7 cells, 48 h, 0–100 μM, read-out: CC50 (MHV block)
Method: as §1

[7] = test system: human coronavirus strain NL63 (HCoV-NL63); assay: HCoV-NL63 titer in medium of infected LLC-Mk2 cells, foci-forming assay; format: cell-based; settings: for antiviral efficacy against HCoV-NL63 compared with compound 24: dose-response 0–25 μM
Method: LR7 or LLC-Mk2 cells were infected at a MOI of 0.01 with MHV and HCoV-NL63, respectively, and treated with selected compounds at a concentration ranging from 0 to 50 μM. Culture supernatants were collected 1 day (MHV) or 4 days (HCoV-NL63) after infection. […]
as §2

[8] = test system: SC-VLP entry into HEK-hACE2 cells; assay: SARS-CoV-2 VLP (SC-VLP) internalization assay in HEK-hACE2 cells, luciferase; format: cell-based; settings: 12.5 μM during SC-VLP production
[9] = virus titer released from LR7 cells, MOI 0.01, 24 h p.i., plaque assay, read-out: IC50 (MHV)
[10] = Severe acute respiratory syndrome coronavirus 2, Vero, supplementary CSV, decimal comma
[11] = Severe acute respiratory syndrome coronavirus 2, Vero cells, supernatant 48 h after infection, plaque assay
[12] = 96 h, virus titer released from LLC-Mk2 cells, MOI 0.01, 4 days p.i., read-out: IC50 (HCoV-NL63)

Compound: CC(=O)OC[C@H]1O[C@@H](SCn2cc(COC[C@H]3O[C@@H](n4ccc(=O)[nH]c4=O)[C@H](O[Si](C)(C)C(C)(C)C)[C@@H]3O[Si](C)(C)C(C)(C)C)nn2)[C@H](OC(C)=O)[C@@H](OC(C)=O)[C@@H]1OC(C)=O [Compound 24, 2′,3′-di-O-tert-Butyldimethylsilyl-5′-O-[(1-(2″,3″,4″,6″-tetra-O-acetyl-β-D-glucopyranosylthiomethyl)-1,2-3-triazol-4-yl)-methyl]-uridine]
- protection against MHV-induced CPE [1]: significantly reduced cell death
- concentration above which MHV-induced CPE was significantly reduced [1]: above 12.5 μM
- concentration that effectively suppressed HCoV-NL63 RNA synthesis (HCoV-NL63 RNA synthesis): 6.25 µM
- CC50 at 96 h [2]: 59.1 µM
- HCoV-NL63 N protein level [3]: significantly reduced; also recorded: No N protein was detected
- dose above which HCoV-NL63 viral protein expression was completely inhibited ([3]; 4 days p.i., immunoblot): above 6.25 μM
- dose above which no virus was detectable (MHV titer) ([4]; plaque assay): above 6.25 μM
- IC50 [4, 9]: 3.7 µM
- IC50 (SARS-CoV-2; [10]): 18.7 µM
- IC50 (SARS-CoV-2; [11]): ~18.7 µM
- CC50 at 96 h [5]: > 100 µM
- inhibition of SARS-CoV-2 replication (replicon) (SARS-CoV-2 replicon): inhibited SARS-CoV-2 replication; also recorded: effectively suppressed SARS-CoV-2 replication; also recorded: partial
- reduction of cell viability (cytotoxicity in uninfected cells) (LR7 cells): 10–30%
- CC50 at 48 h [6]: > 100 µM
- IC50 [7, 12]: 3.1 µM
- dose above which HCoV-NL63 viral release was completely inhibited ([7]; LLC-Mk2 cells, 4 days p.i., foci-forming assay): above 6.25 μM

Compound: CC(=O)OC[C@H]1O[C@@H](SCc2cn(C[C@H]3O[C@@H](n4ccc(=O)[nH]c4=O)[C@H](O[Si](C)(C)C(C)(C)C)[C@@H]3O[Si](C)(C)C(C)(C)C)nn2)[C@H](OC(C)=O)[C@@H](OC(C)=O)[C@@H]1OC(C)=O [Compound 20, 2′,3′-di-O-tert-Butyldimethylsilyl-5′-deoxy-5′-[4-(2″,3″,4″,6″-tetra-O-acetyl-β-D-glucopyranosylthiomethyl)-1,2-3-triazol-1-yl]-uridine]
- protection against MHV-induced CPE [1]: significantly reduced cell death; also recorded: nearly eliminating CPE
- concentration above which MHV-induced CPE was significantly reduced [1]: above 6.25 μM
- concentration that effectively suppressed HCoV-NL63 RNA synthesis (HCoV-NL63 RNA synthesis): 6.25 µM
- CC50 at 96 h [2]: > 100 µM
- HCoV-NL63 N protein level [3]: significantly reduced; also recorded: reduction of N, as well as β-catenin levels
- IC50 ([4]; LR7, supplementary CSV, decimal comma, read-out: IC50 (MHV)): 11.3 µM
- IC50 [4, 9]: 11.3 µM
- reduction in SARS-CoV-2 viral titers (SARS-CoV-2; 25 μM, Vero cells): highest level of activity
- IC50 (SARS-CoV-2; [10]): 16.2 µM
- IC50 (SARS-CoV-2; [11]): ~16.2 µM
- CC50 at 96 h [5]: > 100 µM
- inhibition of SARS-CoV-2 replication (replicon) (SARS-CoV-2 replicon): inhibited SARS-CoV-2 replication; also recorded: effectively suppressed SARS-CoV-2 replication; also recorded: partial
- reduction of cell viability (cytotoxicity in uninfected cells) (LR7 cells): no detectable toxicity
- CC50 at 48 h [6]: > 100 µM
- IC50 [7, 12]: 5.5 µM
- antiviral efficacy against HCoV-NL63 compared with compound 24 ([7]; LLC-Mk2 cells): slightly lower activity

Compound: CC(=O)OC[C@H]1O[C@@H](SCc2cn(C[C@H]3O[C@@H](n4ccc(=O)[nH]c4=O)[C@H](O[Si](C)(C)C(C)(C)C)[C@@H]3O[Si](C)(C)C(C)(C)C)nn2)[C@H](OC(C)=O)[C@@H](OC(C)=O)[C@H]1OC(C)=O [Compound 21, 2′,3′-di-O-tert-Butyldimethylsilyl-5′-deoxy-5′-[4-(2″,3″,4″,6″-tetra-O-acetyl-β-D-galactopyranosylthiomethyl)-1,2-3-triazol-1-yl]-uridine]
- protection against MHV-induced CPE [1]: significantly reduced cell death; also recorded: nearly eliminating CPE
- concentration above which MHV-induced CPE was significantly reduced [1]: above 6.25 μM
- concentration that effectively suppressed HCoV-NL63 RNA synthesis (HCoV-NL63 RNA synthesis): 12.5 µM
- CC50 at 96 h [2]: 46.7 µM
- HCoV-NL63 N protein level [3]: significantly reduced; also recorded: No N protein was detected
- dose above which no virus was detectable (MHV titer) ([4]; plaque assay): above 6.25 μM
- IC50 ([4]; LR7, read-out: IC50 (MHV)): 4.51 µM
- IC50 [4, 9]: 4.5 µM
- IC50 (SARS-CoV-2; Severe acute respiratory syndrome coronavirus 2, Vero): 19 µM
- IC50 (SARS-CoV-2; [11]): ~19 µM
- reduction of SC-VLP entry compared with the control [8]: 80%
- CC50 at 96 h [5]: > 100 µM
- reduction of cell viability (cytotoxicity in uninfected cells) (LR7 cells): no detectable toxicity
- CC50 at 48 h [6]: 65.3 µM
- IC50 [7, 12]: 5.7 µM
- IC50 ([7]; LLC-MK2, read-out: IC50 (HCoV-NL63)): 5.56 µM
- antiviral efficacy against HCoV-NL63 compared with compound 24 ([7]; LLC-Mk2 cells): slightly lower activity

Reference: publication PMC12406196, “Anticoronavirus Activity of Uridine Glycoconjugates Containing a 1,2,3-Triazole Moiety” (Journal of Medicinal Chemistry, 2025)
